Test results reported in patent US20240327334A1, “Covalent Inhibitors As Antiviral Agents” (Enanta Pharmaceuticals, Inc., priority 2022, published 2024).

These compounds were tested against SARS-CoV-2 Papain-like (PLpro) protease (Severe acute respiratory syndrome coronavirus 2, UniProt P0DTD1) (assay: SARS-CoV-2 Papain-like (PLpro) protease biochemical enzyme inhibition assay (ubiquitin-fluorophore substrate, Ub-R110)). Settings: not given.

Row | SMILES | IC50
1 | CCOP(=O)(/C=C/CCNC(=O)C(=O)NCc1ccccc1C(=O)N[C@H](C)c1cccc2ccccc12)OCC [Example 12] | > 10 µM

Same assay, conditions: Ub-R110 substrate; run in duplicate; read-out: PLpro IC50

Row | SMILES | IC50
2 | C[C@@H](NC(=O)c1ccccc1CNC(=O)C(=O)NCCC#N)c1cccc2ccccc12 [Example 5] | > 10 µM
3 | CC#CC(=O)NNC(=O)C(=O)NCc1ccccc1C(=O)N[C@H](C)c1cccc2ccccc12 [Example 7] | > 10 µM
4 | C[C@@H](NC(=O)c1ccccc1CNC(=O)C(=O)NCCC(=O)C(F)(F)F)c1cccc2ccccc12 [Example 9] | 1 to 10 µM
5 | COC(=O)/C=C/CCNC(=O)C(=O)Nc1ccccc1C(=O)N[C@H](C)c1cccc2ccccc12 [Example 10] | > 10 µM
6 | COC(=O)/C=C/CNC(=O)C(=O)Nc1ccccc1C(=O)N[C@H](C)c1cccc2ccccc12 [Example 11] | > 10 µM
7 | C[C@@H](NC(=O)c1ccccc1CNC(=O)C(=O)NCC/C=C/P(=O)(O)O)c1cccc2ccccc12 [Example 13] | > 10 µM
8 | C[C@@H](NC(=O)c1ccccc1CNC(=O)C(=O)NC/C=C/C(=O)O)c1cccc2ccccc12 [Example 14] | 1 to 10 µM
9 | C[C@@H](NC(=O)c1ccccc1CNC(=O)C(=O)NC1(C#N)CC1)c1cccc2ccccc12 [Example 15] | > 10 µM
10 | CNC(=O)/C=C/CNC(=O)C(=O)NCc1ccccc1C(=O)N[C@H](C)c1cccc2ccccc12 [Example 16] | 1 to 10 µM
11 | COC(=O)/C=C/CCNC(=O)C(=O)NCC1C[C@H]1C(=O)N[C@H](C)c1cccc2ccccc12 (some centres unmarked) [Example 17] | > 10 µM
12 | COC(=O)/C=C/CNC(=O)C(=O)NCC1C[C@H]1C(=O)N[C@H](C)c1cccc2ccccc12 (some centres unmarked) [Example 18] | 1 to 10 µM
13 | COC(=O)/C=C/CCNC(=O)C(=O)NCC1C[C@@H]1C(=O)N[C@H](C)c1cccc2ccccc12 (some centres unmarked) [Example 19] | > 10 µM
14 | COC(=O)/C=C/CNC(=O)C(=O)NCC1C[C@@H]1C(=O)N[C@H](C)c1cccc2ccccc12 (some centres unmarked) [Example 20] | 1 to 10 µM
15 | C[C@@H](NC(=O)c1ccccc1CNC(=O)C(=O)N1CCC(=O)N1)c1cccc2ccccc12 [Example 23] | > 10 µM
16 | C#CC(=O)NNC(=O)C(=O)Nc1ccccc1C(=O)N[C@H](C)c1cccc2ccccc12 [Example 26] | 1 to 10 µM
17 | C=CC(=O)NNC(=O)C(=O)Nc1ccccc1C(=O)N[C@H](C)c1cccc2ccccc12 [Example 27] | > 10 µM
18 | COC(=O)/C=C/CNC(=O)C(=O)NCc1c(F)cc(F)cc1C(=O)N[C@H](C)c1cccc2ccccc12 [Example 30] | 0.1 to 1 µM
19 | C#CCNC(=O)C(=O)NCc1ccccc1C(=O)NC1(c2cccc3ccccc23)CC1 [Example 32] | < 0.1 µM
20 | C[C@@H](NC(=O)c1ccccc1CNC(=O)C(=O)NCC#N)c1cc(-c2ccccc2)cc(C(F)(F)F)c1 [Example 34] | < 0.1 µM
21 | COC(=O)/C=C/CNC(=O)C(=O)NCc1ccccc1C(=O)N[C@H](C)c1cc(-c2ccccc2)cc(C(F)(F)F)c1 [Example 35] | < 0.1 µM
22 | COC(=O)/C=C/C1(NC(=O)C(=O)NCc2ccccc2C(=O)N[C@H](C)c2cccc3ccccc23)CC1 [Example 36] | > 10 µM
23 | COC(=O)/C=C/CNC(=O)C(=O)NCCc1ccccc1C(=O)N[C@H](C)c1cccc2ccccc12 [Example 37] | 0.1 to 1 µM
24 | N#CCNC(=O)C(=O)NCc1ccccc1C(=O)NC1(c2ccc3ccccc3c2)CC1 [Example 39] | 0.1 to 1 µM
25 | N#CC1CCCN1C(=O)C(=O)NCc1ccccc1C(=O)NC1(c2cccc3ccccc23)CC1 (centres unmarked) [Example 41] | > 10 µM

Row | SMILES | IC50
26 | C=C(CNC(=O)C(=O)NCc1ccccc1C(=O)N[C@H](C)c1cccc2ccccc12)C(=O)O [Example 42] | > 10 µM
27 | COC(=O)/C=C/CNC(=O)C(=O)NCc1ccccc1C(=O)NC1(c2ccc3ccccc3c2)CC1 [Example 43] | < 0.1 µM
28 | N#CCNC(=O)C(=O)NCc1ccccc1C(=O)NC1(c2cc(Br)cc3ccccc23)CC1 [Example 44] | < 0.1 µM
29 | N#CCNC(=O)C(=O)NCc1ccccc1C(=O)NC1(c2cc(C(F)(F)F)cc(C(F)(F)F)c2)CC1 [Example 45] | 1 to 10 µM
30 | CC(NC(=O)C(=O)NCC#N)c1ccccc1C(=O)N[C@H](C)c1cccc2ccccc12 (some centres unmarked) [Example 50] | > 10 µM
31 | COC(=O)/C=C/CCNC(=O)C(=O)NC(C)c1ccccc1C(=O)N[C@H](C)c1cccc2ccccc12 (some centres unmarked) [Example 51] | > 10 µM
32 | COC(=O)/C=C/CNC(=O)C(=O)NC(C)c1ccccc1C(=O)N[C@H](C)c1cccc2ccccc12 (some centres unmarked) [Example 52] | 1 to 10 µM
33 | C#CCNC(=O)C(=O)NCc1ccccc1C(=O)NC1(c2cc(-c3cn(-c4ccc(F)cc4F)nn3)cc(C(F)(F)F)c2)CC1 [Example 57] | 1 to 10 µM
34 | N#CCNC(=O)C(=O)NCc1ccccc1C(=O)NC1(c2cc(-c3cn(-c4ccc(F)cc4F)nn3)cc(C(F)(F)F)c2)CC1 [Example 58] | > 10 µM
35 | N#CCNC(=O)C(=O)NCc1ccccc1C(=O)NC1(c2cc(-c3cn(C4CC4)nn3)cc(C(F)(F)F)c2)CC1 [Example 60] | 0.1 to 1 µM
36 | C#CCNC(=O)C(=O)NCc1ccccc1C(=O)NC1(c2cc(Oc3cccc(OC)c3)cc(C(F)(F)F)c2)CC1 [Example 63] | > 10 µM
37 | COc1cccc(Oc2cc(C(F)(F)F)cc(C3(NC(=O)c4ccccc4CNC(=O)C(=O)NCC#N)CC3)c2)c1 [Example 64] | > 10 µM
38 | C#CCNC(=O)C(=O)NCc1ccccc1C(=O)NC1(c2cc(Oc3cccc(C(F)(F)F)c3)cc(C(F)(F)F)c2)CC1 [Example 65] | > 10 µM
39 | N#CCNC(=O)C(=O)NCc1ccccc1C(=O)NC1(c2cc(Oc3cccc(C(F)(F)F)c3)cc(C(F)(F)F)c2)CC1 [Example 66] | > 10 µM
40 | C#CCNC(=O)C(=O)NCc1ccccc1C(=O)NC1(c2cc(Oc3ccccc3)cc(C(F)(F)F)c2)CC1 [Example 67] | > 10 µM
41 | N#CCNC(=O)C(=O)NCc1ccccc1C(=O)NC1(c2cc(Oc3ccccc3)cc(C(F)(F)F)c2)CC1 [Example 68] | > 10 µM
42 | N#CCNC(=O)C(=O)NCc1ccccc1C(=O)NC1(c2cc(Cl)cc(-c3cnc(C(F)(F)F)nc3)c2)CC1 [Example 72] | 0.1 to 1 µM
43 | O=C(NCC#Cc1cc(F)cc(F)c1)C(=O)NCc1ccccc1C(=O)NC1(c2ccc3ccccc3c2)CC1 [Example 75] | > 10 µM
44 | O=C(NCC#Cc1ccc(F)cc1)C(=O)NCc1ccccc1C(=O)NC1(c2ccc3ccccc3c2)CC1 [Example 76] | > 10 µM
45 | CN(C(=O)c1cc(Cl)cc(C2(NC(=O)c3ccccc3CNC(=O)C(=O)NCC#N)CC2)c1)c1ccc(F)cc1 [Example 78] | 0.1 to 1 µM
46 | O=C(NCC#Cc1ccc(F)cc1F)C(=O)NCc1ccccc1C(=O)NC1(c2ccc3ccccc3c2)CC1 [Example 80] | > 10 µM
47 | O=C(NCC#Cc1ccc(C(F)(F)F)s1)C(=O)NCc1ccccc1C(=O)NC1(c2ccc3ccccc3c2)CC1 [Example 89] | > 10 µM
48 | C#C[C@@H](NC(=O)C(=O)NCc1ccccc1C(=O)NC1(c2ccc3nn(C)cc3c2)CC1)C(C)C [Example 91] | > 10 µM
49 | N#Cc1ccc(C#CCNC(=O)C(=O)NCc2ccccc2C(=O)NC2(c3ccc4ccccc4c3)CC2)s1 [Example 92] | 1 to 10 µM

Row | SMILES | IC50
50 | N#Cc1cccc(C#CCNC(=O)C(=O)NCc2ccccc2C(=O)NC2(c3ccc4ccccc4c3)CC2)c1 [Example 93] | > 10 µM
51 | N#Cc1ccc(C#CCNC(=O)C(=O)NCc2ccccc2C(=O)NC2(c3ccc4ccccc4c3)CC2)c(C(F)(F)F)c1 [Example 95] | 0.1 to 1 µM
52 | N#CCNC(=O)C(=O)NCc1ccccc1C(=O)NC1(c2cccc3ccccc23)COC1 [Example 96] | > 10 µM
53 | C[C@@H](C#Cc1ccc(F)cc1C#N)NC(=O)C(=O)NCc1ccccc1C(=O)NC1(c2ccc3nn(C)cc3c2)CC1 [Example 101] | 0.1 to 1 µM
54 | C#CCNC(=O)C(=O)NCc1ccccc1C(=O)NC1(c2cccc3ccccc23)COC1 [Example 102] | > 10 µM
55 | N#Cc1ccc(C#CCNC(=O)C(=O)NCc2ccccc2C(=O)NC2(c3cccc4ccccc34)COC2)c(F)c1 [Example 108] | > 10 µM
56 | C[C@@H](C#Cc1ccc(C#N)cc1C#N)NC(=O)C(=O)NCc1ccccc1C(=O)NC1(c2ccc3nn(C)cc3c2)CC1 [Example 110] | 1 to 10 µM
57 | C[C@@H](C#Cc1ccc([S+](C)[O-])cc1)NC(=O)C(=O)NCc1ccccc1C(=O)NC1(c2ccc3nn(C)cc3c2)CC1 (some centres unmarked) [Example 111] | 1 to 10 µM
58 | COc1ccc(C#C[C@H](C)NC(=O)C(=O)NCc2ccccc2C(=O)NC2(c3ccc4nn(C)cc4c3)CC2)c(C#N)c1 [Example 112] | < 0.1 µM
59 | C[C@@H](C#Cc1ccc(Cl)cc1C#N)NC(=O)C(=O)NCc1ccccc1C(=O)NC1(c2ccc3nn(C)cc3c2)CC1 [Example 113] | < 0.1 µM
60 | N#CCNC(=O)C(=O)NCc1ccc(C(=O)NC2CC2)cc1C(=O)NC1(c2ccc(F)c3ccccc23)CC1 [Example 116] | < 0.1 µM
61 | N#C[C@H]1CCCN1C(=O)C(=O)NCc1ccccc1C(=O)NC1(c2cccc3ccccc23)CC1 [Example 118] | > 10 µM
62 | N#C[C@@H]1CCN1C(=O)C(=O)NCc1ccccc1C(=O)NC1(c2cccc3ccccc23)CC1 [Example 119] | 1 to 10 µM
63 | N#C[C@H]1CCN1C(=O)C(=O)NCc1ccccc1C(=O)NC1(c2cccc3ccccc23)CC1 [Example 120] | > 10 µM
64 | O=C(NCc1ccccc1C(=O)NC1(c2ccc(F)c3ccccc23)CC1)C(=O)N[C@H]1CNC1=O [Example 122] | > 10 µM
65 | O=C(NCc1ccccc1C(=O)NC1(c2ccc(F)c3ccccc23)CC1)C(=O)N[C@@H]1CNC1=O [Example 123] | > 10 µM
66 | CN(C#N)NC(=O)C(=O)NCc1ccccc1C(=O)NC1(c2ccc(F)c3ccccc23)CC1 [Example 124] | 1 to 10 µM
67 | C#C[C@H](C)NC(=O)C(=O)NCc1ccccc1C(=O)NC1(c2cc(F)cc(-c3cnn(C4CC4)c3)c2)CC1 [Example 141] | 0.1 to 1 µM
68 | C[C@@H](C#Cc1ncccc1C(F)(F)F)NC(=O)C(=O)NCc1ccccc1C(=O)NC1(c2cc(F)cc(-c3cnn(C4CC4)c3)c2)CC1 [Example 142] | 0.1 to 1 µM
69 | C[C@@H](C#Cc1ncco1)NC(=O)C(=O)NCc1ccccc1C(=O)NC1(c2cc(F)cc(-c3cnn(C4CC4)c3)c2)CC1 [Example 143] | 1 to 10 µM
70 | Cn1cc2cc(C3(NC(=O)c4ccccc4CNC(=O)C(=O)NCC#Cc4ccc(Cl)cc4F)CC3)ccc2n1 [Example 148] | < 0.1 µM
71 | CC#CCNC(=O)C(=O)NCc1ccccc1C(=O)NC1(c2cccc3ccccc23)CC1 [Example 150] | 1 to 10 µM
